# Test results published in US20230051589A1, “COMPOUNDS AND COMPOSITIONS FOR TREATING CONDITIONS ASSOCIATED WITH NLRP ACTIVITY” (Novartis AG, priority 2018, published 2023).
# pIC50: −log10 of the molar value.
# System: IL-1β production in PMA-differentiated THP-1 cells
# Assay: IL-1β production in PMA-differentiated THP-1 cells stimulated with gramicidin (hTHP-1 assay, 2% fetal bovine serum; Procedures 1-3)
# Assay type: cell-based, human
# Conditions: Homo sapiens, THP-1, Table B3; hTHP-1 assay containing 2% fetal bovine serum, gramicidin stimulation, IL-1β readout; read-out: hTHP-1 IC50
# Outline: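 PMA-primed THP-1 cells (20 ng/ml PMA, 16-18 h) in RPMI with 2% FBS were pre-incubated with compounds for 1 h, from 100 μM downward in 3-fold steps (0.37% DMSO final), then stimulated with 5 μM gramicidin for 2 h. IL-1β in the supernatant was quantified by HTRF.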
row,SMILES,pIC50
1,"CC(O)(CO)c1nc(CO)c(S(N)(=O)=NC(=O)Nc2c3c(cc4c2CCC4)CCC3)s1 (stereo not drawn) [Example 753, 2-(1,2-Dihydroxypropan-2-yl)-N′-((1,2,3,5,6,7-hexahydro-s-indacen-4-yl)carbamoyl)-4-(hydroxymethyl)thiazole-5-sulfonimidamide]",6.70 to 7.40
2,"CC(C)(O)c1sc(S(N)(=O)=NC(=O)Nc2c3c(cc4c2CCC4)CCC3)cc1-c1ccccc1 (stereo not drawn) [Example 760, N′-((1,2,3,5,6,7-hexahydro-s-indacen-4-yl)carbamoyl)-5-(2-hydroxypropan-2-yl)-4-phenylthiophene-2-sulfonimidamide]",6.00 to 6.70
3,"CNC(c1ccc(S(N)(=O)=NC(=O)Nc2c3c(cc4c2CC4)CCC3)s1)C1CC1 (single isomer, unassigned) [Example 721, 5-((R) or (S)-cyclopropyl(methylamino)methyl)-N′-((2,4,5,6-tetrahydro-1H-cyclobuta[f]inden-3-yl)carbamoyl)thiophene-2-sulfonimidamide]",7.40 to 8.10

# Same assay, conditions: Homo sapiens, THP-1, hTHP-1 assay containing 2% fetal bovine serum, Table B2, class symbols; read-out: IC50
row,SMILES,pIC50
1,CC(C)n1nc(S(N)(=O)=NC(=O)Nc2c3c(cc4c2C(=O)CC4)CCC3)cc1CO (stereo not drawn) [Compound 907],5.30 to 6.00
2,CC(C)(CO)c1ncc(S(N)(=O)=NC(=O)Nc2c3c(c(C#N)c4c2CCC4)CCC3)s1 (stereo not drawn) [Compound 913],6.70 to 7.40
3,CN(C)CC(C)(C)c1ccc([S@@](N)(=O)=NC(=O)Nc2c3c(cc4c2CCC4)CCC3)cc1 [Compound 902b],6.00 to 6.70
4,CN1CCC[C@@H](c2ccc([S@@](N)(=O)=NC(=O)Nc3c4c(cc5c3CC5)CCC4)c(F)c2)C1 [Compound 911d],5.30 to 6.00
5,CC(C)(O)c1cccc(S(N)(=O)=NC(=O)Nc2c3c(cc4c2CCC4)CCC3)n1 (stereo not drawn) [Compound 895],5.30 to 6.00
6,"CC(C)(O)c1ccc(S(N)(=O)=NC(=O)Nc2cc3c(c4c2CCC4)CCC3)cn1 (stereo not drawn) [Example 464, N′-((1,2,3,6,7,8-hexahydro-as-indacen-4-yl)carbamoyl)-6-(2-hydroxypropan-2-yl)pyridine-3-sulfonimidamide]",5.30 to 6.00
7,"COc1ccc(Cn2nc(S(N)(=O)=NC(=O)Nc3c4c(cc5c3CCC5)CCC4)cc2C(C)(C)O)cc1 (stereo not drawn) [Example 682, N′-((1,2,3,5,6,7-hexahydro-s-indacen-4-yl)carbamoyl)-5-(2-hydroxypropan-2-yl)-1-(4-methoxybenzyl)-1H-pyrazole-3-sulfonimidamide]",6.00 to 6.70
8,"CN(C)Cc1ccc(S(N)(=O)=NC(=O)Nc2c3c(cc4c2CC4)CCC3)cc1 (stereo not drawn) [Example 446, 4-((Dimethylamino)methyl)-N′-(2,4,5,6-tetrahydro-1H-cyclobuta[f]inden-3-ylcarbamoyl)benzenesulfonimidamide]",6.00 to 6.70
9,NS(=O)(=NC(=O)Nc1c2c(cc3c1CCC3)CCC2)c1sc(CNC2CCC2)cc1F (stereo not drawn) [Compound 898],6.00 to 6.70
10,C[C@](O)(CO)c1ncc(S(N)(=O)=NC(=O)Nc2c3c(cc4c2CC4)CCC3)s1 (stereo partly drawn) [919f^],7.40 to 8.10
11,"CC(C)(O)c1cc(C#N)cc(S(N)(=O)=NC(=O)Nc2c3c(c(C#N)c4c2CCC4)CCC3)c1 (stereo not drawn) [Example 482, 3-Cyano-N′-((8-cyano-1,2,3,5,6,7-hexahydro-s-indacen-4-yl)carbamoyl)-5-(2-hydroxypropan-2-yl)benzenesulfonimidamide]",5.30 to 6.00
12,CC(C)(O)c1sc(S(N)(=O)=NC(=O)Nc2c3c(cc4c2CCC4)CCC3)nc1CO (stereo not drawn) [Compound 893],6.70 to 7.40

# Same assay, conditions: Homo sapiens, THP-1, hTHP-1 assay containing 2% fetal bovine serum, Table B2, given as bound; read-out: IC50
row,SMILES,pIC50
1,"CC(C)(O)c1ccc(S(N)(=O)=NC(=O)Nc2cc3c(c4c2CCC4)CCC3)cn1 (single isomer, unassigned) [Example 590, (S) or (R)-N′-((1,2,3,6,7,8-hexahydro-as-indacen-4-yl)carbamoyl)-6-(2-hydroxypropan-2-yl)pyridine-3-sulfonimidamide]",< 4.52
2,"CC(C)(O)c1cnc(S(N)(=O)=NC(=O)Nc2c3c(cc4c2C(O)CC4)CCC3)s1 (single isomer, unassigned) [Example 654, (S,R) or (S,S)-N′-((-3-hydroxy-1,2,3,5,6,7-hexahydro-s-indacen-4-yl)carbamoyl)-5-(2-hydroxypropan-2-yl)thiazole-2-sulfonimidamide]",< 4.52
3,CN1CCC[C@@H](c2ccc([S@](N)(=O)=NC(=O)Nc3c4c(cc5c3CC5)CCC4)c(F)c2)C1 [Compound 911a],< 4.52
4,"CC(C)N(C)c1ccc(S(N)(=O)=NC(=O)Nc2c3c(cc4c2CCC4)CCC3)cc1 (single isomer, unassigned) [Example 614, (S) or (R)-N′-((1,2,3,5,6,7-hexahydro-s-indacen-4-yl)carbamoyl)-4-(isopropyl(methyl)amino) benzenesulfonimidamide]",< 4.52

# Same assay, conditions: Table B1; hTHP-1 assay containing 2% fetal bovine serum, gramicidin stimulation, IL-1β readout; read-out: hTHP-1 IC50 (average)
row,SMILES,pIC50
1,"NCc1ccc(S(N)(=O)=NC(=O)Nc2c3c(cc4c2CCC4)CCC3)cc1 (single isomer, unassigned) [Example 411, (R) or (S)-4-(aminomethyl)-N′-((1,2,3,5,6,7-hexahydro-5-indacen-4-yl)carbamoyl)-benzenesulfonimidamide]",5.30 to 6.00
2,"CC(C)(O)c1ncc(S(N)(=O)=NC(=O)Nc2cc3c(c4c2CCC4)CCC3)s1 (single isomer, unassigned) [Example 419, (R) or (S)-N′-((1,2,3,6,7,8-hexahydro-as-indacen-4-yl)carbamoyl)-2-(2-hydroxypropan-2-yl)thia-zole-5-sulfonimidamide]",6.70 to 7.40
3,"CNS(=O)(=NC(=O)Nc1c2c(c(F)c3c1CCC3)CCC2)c1cc(C(C)(C)O)cs1 (single isomer, unassigned) [Example 181]",4.52 to 5.30

# Same assay, conditions: Table B3; hTHP-1 assay containing 2% fetal bovine serum, gramicidin stimulation, IL-1β readout; read-out: hTHP-1 IC50
row,SMILES,pIC50
1,"CC(C)(O)c1sc(S(N)(=O)=NC(=O)Nc2c3c(cc4c2CCC4)CCC3)cc1-c1ccccc1 (single isomer, unassigned) [Example 801, (S) or (R)-N′-((1,2,3,5,6,7-hexahydro-s-indacen-4-yl)carbamoyl)-5-(2-hydroxypropan-2-yl)-4-phenylthiophene-2-sulfonimidamide]",4.52 to 5.30
2,"CC(C)(O)c1nc(CO)c(S(N)(=O)=NC(=O)Nc2c3c(cc4c2C(=O)CC4)CCC3)s1 (single isomer, unassigned) [Example 808, (R) or (S)-4-(hydroxymethyl)-2-(2-hydroxypropan-2-yl)-N′-((3-oxo-1,2,3,5,6,7-hexahydro-s-indacen-4-yl)carbamoyl)thiazole-5-sulfonimidamide]",5.30 to 6.00
3,"CCn1ccc(S(N)(=O)=NC(=O)Nc2c3c(cc4c2CCC4)CCC3)n1 (single isomer, unassigned) [Example 813, (R) or (S)-1-ethyl-N′-((1,2,3,5,6,7-hexahydro-s-indacen-4-yl)carbamoyl)-1H-pyrazole-3-sulfonimidamide]",6.70 to 7.40
4,"C[C@@](O)(CO)c1nc(CO)c(S(N)(=O)=NC(=O)Nc2c3c(cc4c2CCC4)CCC3)s1 (stereo partly drawn) [Example 754, 2-((R)-1,2-dihydroxypropan-2-yl)-N′-((1,2,3,5,6,7-hexahydro-s-indacen-4-yl)carbamoyl)-4-(hydroxymethyl)thiazole-5-sulfommidamide]",6.70 to 7.40

# Same assay, conditions: hTHP-1 assay containing 2% fetal bovine serum, Table B2, class symbols; read-out: IC50
row,SMILES,pIC50
1,"CN(C)Cc1cnc(S(N)(=O)=NC(=O)Nc2c3c(cc4c2CCC4)CCC3)c(F)c1 (single isomer, unassigned) [Example 518, (R) or (S)-5-((dimethylamino)methyl)-3-fluoro-N′-((1,2,3,5,6,7-hexahydro-s-indacen-4-yl)carbamoyl) pyridine-2-sulfonimidamide]",5.30 to 6.00
2,"CC(C)(O)c1cc(C#N)cc(S(N)(=O)=NC(=O)Nc2c3c(c(C#N)c4c2CCC4)CCC3)c1 (single isomer, unassigned) [Example 578, (R) or (S)-3-cyano-N′-((8-cyano-1,2,3,5,6,7-hexahydro-s-indacen-4-yl)carbamoyl)-5-(2-hydroxypropan-2-yl) benzenesulfonimidamide]",5.30 to 6.00
3,"CC(C)(O)c1cnc(S(N)(=O)=NC(=O)Nc2c3c(cc4c2C(O)CC4)CCC3)s1 (single isomer, unassigned) [Example 651, (R,S) or (R,R)-N′-((3-hydroxy-1,2,3,5,6,7-hexahydro-s-indacen-4-yl)carbamoyl)-5-(2-hydroxypropan-2-yl)thiazole-2-sulfonimidamide]",5.30 to 6.00
4,"CO[C@H]1COc2c(S(N)(=O)=NC(=O)Nc3c4c(cc5c3CC5)CCC4)cnn2C1 (single isomer, unassigned) [Example 535, (S,6R) or (R,6R)-6-methoxy-N′-((2,4,5,6-tetrahydro-1H-cyclobuta[f]inden-3-yl)caibamoyl)-6,7-dihydro-5H-pyrazolo [5,1-b][1,3]oxazine-3-sulfonimidamide]",5.30 to 6.00
5,"CNCC(C)(C)c1ccc(S(N)(=O)=NC(=O)Nc2c3c(cc4c2CCC4)CCC3)cc1 (single isomer, unassigned) [Example 520, (S) or (R)-N′-((1,2,3,5,6,7-hexahydro-s-indacen-4-yl)carbamoyl)-4-(2-methyl-1-(methylamino)propan-2-yl) benzenesulfonimidamide]",4.52 to 5.30
6,"NS(=O)(=NC(=O)Nc1c2c(cc3c1CCC3)CCC2)c1cnn2c1OC[C@H](O)C2 (single isomer, unassigned) [Example 516, (S,6R) or (R,6R)-N′-((1,2,3,5,6,7-hexahydro-s-indacen-4-yl)carbamoyl)-6-hydroxy-6,7-dihydro-5H-pyrazolo[5,1-b] [1,3]oxazine-3-sulfonimidamide]",5.30 to 6.00
7,"CC(C)(O)c1cncc(S(N)(=O)=NC(=O)Nc2c3c(c(C#N)c4c2CCC4)CCC3)c1 (single isomer, unassigned) [Example 522, (R) or (S)-N′-((8-cyano-1,2,3,5,6,7-hexahydro-s-indacen-4-yl)carbamoyl)-5-(2-hydroxypropan-2-yl)pyridine-3-sulfonimidamide]",6.00 to 6.70
